From patent publication US4906794A, “Lysosome liberation inhibitors and histamine release inhibitors” (Mitsubishi Kasei Corporation, priority 1986, dated 1990)

How the values were obtained:
mast cells [1] = conditions: inhibitor of histamine release; cited from earlier work
[2] = tested on: carrageenin-induced rat paw edema; assay: rat carrageenin edema test (carrageenin-induced rat paw edema); format: in vivo, Wistar male rat; conditions: 6 rats; for % Inhibition (edema), 2 Hours: 2 hours after carrageenin; for % Inhibition (edema), 3 Hours: 3 hours after carrageenin
Description: When […] of 1% (W/V) λ-carrageenin is subcutaneously injected into the left paw of a Wistar male rat of 120 to 150 g, edema is developed in the left paw with a severity peak at 3 to 4 hours after injection--rat carrageenin edema test. It has been known that this carrageenin-induced rat paw edema is an excellent experimental model for inflammation, where histamine is involved in the development of edema immediately after injection of carrageenin, and subsequently such chemical mediators as prostaglandins, leukotrienes, bradykinin and the like are also involved.
The effect of sarcophytol-A on edema was investigated employing this experimental model: sarcophytol-A was orally administered to rats one hour before injection of carrageenin and the volume of the thus induced edema in the rat paw was measured by a volumometer 2 or 3 hours after the injection of carrageenin.
Degrees of edematization are expressed in percentages of paw volume increases after induction with respect to the paw volumes before induction: namely,
% Edematization=(B-A)/A×100
wherein A is the paw volume before induction, and B after induction. Further, inhibiting rates (%) are calculated according to the following equation: […]

mast cells [3] = assay: release of histamine from mast cells stimulated with compound 48/80; format: cell-based, male Wistar rat; conditions: for Histamine Release: control (0.1% DMSO) 62.42
Description: Such histamine release can also be caused by addition of a synthetic stimulant compound 48/80, ATP (adenosine triphosphate), to mast cells.
Thus, mast cells were collected from the peritoneal cavity of a male Wistar rat of 400 to 450 g in body weight according to conventional procedures. The mast cells (5×10^4) were incubated in Krebs-Ringer buffer (pH 7.4) containing an amount of sarcophytol-A for 10 minutes. The compound 48/80 (100 ng) was added as a stimulant. After incubation for further 10 minutes, cells were removed by centrifugation. Histamine in the supernatant was quantitatively measured according to Shore et al. method: J. Phar. Exp. Ther., 127, 182-186 (1959). Total histamine contained in the mast cells was also measured. Inhibition rates (%) are calculated according to the following equation: […]
wherein T and C represent the amount of histamine released from mast cells after the treatment with the drug, and the total amount contained in the mast cells, respectively.

[4] = tested on: polymorphonuclear leukocytes; assay: liberation of lysosomal enzymes (β-glucuronidase) from FMLP-stimulated polymorphonuclear leukocytes; format: cell-based, male Wistar rat; conditions: for Liberation (%) of lysosomal enzymes: control (0.1% DMSO) 32.0
Description: When 20 ml of 1% casein is intraperitoneally injected to a rat, a large number of polymorphonuclear leukocytes appear in the peritoneal cavity in 5 hours after the injection. Using these polymorphonuclear leukocytes, it is possible to measure the activity of polymorphonuclear leukocytes in an in vitro system. Thus, polymorphonuclear leukocytes are added into a test tube together with a buffer, and cytochalasin B is then added. Five minutes later, a stimulant formyl-methionyl-leucyl-phenylalanine (FMLP) is added. Then, the polymorphonuclear leukocytes liberate lysosomal enzymes. Simultaneously, some active enzymes and leukotrienes are produced. See Wei Hsueh et al., Nature, 290(23), 710-713 (11981).
Thus, polymorphonuclear leukocytes (2×10^6) were collected from the peritoneal cavity of a male Wistar rat of 250 to 350 g in body weight which had been stimulated with casein, and incubated in Hepes buffer (pH 7.4) for 5 minutes. After 5 μg of cytochalasin B was added, the mixture was incubated for an additional one minute. To the mixture, there was added an amount of a drug to be tested and, after incubation for 5 minutes, FMLP (0.1 μM) as a stimulant was added. Five minutes later, 2 volumes of ice-cooled phosphate buffer was added to arrest the reaction. The cells were removed by centrifugation at 1,100 rpm for 5 minutes. The supernatant was assayed for β-glucuronidase activity as an index of lysosomal enzymes. Separately, the total β-glucuronidase activity contained in the polymorphonuclear leukocyte was measured. Thus, liberation rates of lysosomal enzymes were determined as percentages of […]. Inhibition rates were calculated in percentage according to the following equation:
% Inhibition=(1-T/C) ×100
wherein T and C represent the liberation rates (%) of lysosomes for the treated and control groups, respectively.

mast cells [5] = assay: release of histamine from mast cells stimulated with protein extracted from the cuticle of ascarids (IgE antigen); format: cell-based, rat; conditions: preincubated before addition of protein extracted from the cuticle of ascarids
[6] = 33 mg/kg oral, 1 h before carrageenin

O=C(O)c1cc(=O)c2c(OCC(O)COc3cccc4oc(C(=O)O)cc(=O)c34)cccc2o1 [cromoglycate]
degranulation of mast cells (in words) (mast cells [1]): inhibits degranulation of mast cells

COc1ccc2c(c1)c(CC(=O)O)c(C)n2C(=O)c1ccc(Cl)cc1 [Indomethacin, reference compound]
% Inhibition (edema), 2 Hours ([2]; 10 mg/kg oral, **p<0.01 vs control): 43.5 ± 3.5%
% Inhibition (edema), 3 Hours ([2]; 10 mg/kg oral, ***p<0.001 vs control): 43.7 ± 3.0%

C/C1=C\C=C(\C(C)C)[C@@H](O)C/C(C)=C/CC/C(C)=C/CC1 [Sarcophytol-A]
Histamine Release (mast cells [3]; 4 μM, compound 48/80 100 ng): 65.32 Fluorescence Intensity
Histamine Release (mast cells [3]; 11 μM, compound 48/80 100 ng): 59.72 Fluorescence Intensity
Histamine Release (mast cells [3]; 33 μM, compound 48/80 100 ng): 55.72 Fluorescence Intensity
Histamine Release (mast cells [3]; 100 μM, compound 48/80 100 ng): 41.45 Fluorescence Intensity
inhibition at 4 µM (mast cells [3]; Rattus norvegicus, Mast cell, 4 μM, compound 48/80 100 ng): -4.6%
inhibition at 11 µM (mast cells [3]; Rattus norvegicus, Mast cell, 11 μM, compound 48/80 100 ng): 4.3%
inhibition at 33 µM (mast cells [3]; Rattus norvegicus, Mast cell, 33 μM, compound 48/80 100 ng): 10.7%
inhibition at 100 µM (mast cells [3]; Rattus norvegicus, Mast cell, 100 μM, compound 48/80 100 ng): 33.6%
release of histamine (in words) (mast cells [3]; preincubated before addition of stimulant compound 48/80): positively inhibited
% Inhibition (edema), 2 Hours [2, 6]: -3.0 ± 6.5%
% Inhibition (edema), 3 Hours [2, 6]: 2.4 ± 8.6%
% Inhibition (edema), 2 Hours ([2]; 100 mg/kg oral, 1 h before carrageenin): 24.4 ± 7.8%
% Inhibition (edema), 3 Hours ([2]; 100 mg/kg oral, 1 h before carrageenin, **p<0.01 vs control): 26.9 ± 6.9%
Liberation (%) of lysosomal enzymes ([4]; 4 μM, FMLP 0.1 μM): 29.4%
Liberation (%) of lysosomal enzymes ([4]; 11 μM, FMLP 0.1 μM): 27.2%
Liberation (%) of lysosomal enzymes ([4]; 33 μM, FMLP 0.1 μM): 26.0%
Liberation (%) of lysosomal enzymes ([4]; 100 μM, FMLP 0.1 μM): 13.1%
inhibition at 4 µM ([4]; Rattus norvegicus, Leukocyte, 4 μM, FMLP 0.1 μM, read-out: Inhibition (%) of lysosome liberation): 8.1%
inhibition at 11 µM ([4]; Rattus norvegicus, Leukocyte, 11 μM, FMLP 0.1 μM, read-out: Inhibition (%) of lysosome liberation): 15.1%
inhibition at 33 µM ([4]; Rattus norvegicus, Leukocyte, 33 μM, FMLP 0.1 μM, read-out: Inhibition (%) of lysosome liberation): 18.8%
inhibition at 100 µM ([4]; Rattus norvegicus, Leukocyte, 100 μM, FMLP 0.1 μM, read-out: Inhibition (%) of lysosome liberation): 59%
liberation of lysosomal enzymes (in words) ([4]; preincubated before addition of the stimulant FMLP): positively inhibited
release of histamine (in words) (mast cells [5]): positively inhibited
